# What was measured:
# latent HIV expression = conditions: more potent than prostratin; cited from earlier work
# [1] = system: latent HIV expression in J-Lat 6.3 cells; test: HIV-LTR-driven expression of GFP (flow cytometry) in J-Lat 6.3 cells; type: cell-based; conditions: 16 hours; for activation of latent HIV expression (GFP-positive cells): J-Lat 6.3 cells
# Protocol: (§1) J-Lat 6.3, J-Lat 8.4 T-cells, and J-Lat 9.2 cells are Jurkat T cell lines containing integrated but transcriptionally latent HIV proviruses. These J-Lat cells contain wild-type Tat and TAR and appear to be highly representative of the latently infected cells present in vivo (Williams et al., 2004, J Biol Chem 279(40):42008-42017).
# (§2) J-Lat 6.3 T cells, J-Lat 8.4 T-cells and J-Lat 9.2 T cells were obtained from Jordan et al., (Jordan et al., 2003, EMBO J 22(8):1868-1877). J-Lat cells were cultured in RPMI supplemented with 10% fetal calf serum (FCS) and penicillin/streptomycin and L-glutamine described (Williams et al., 2004, J Biol Chem 279(40):42008-42017; Williams et al., 2006, EMBO J 25:139-149).
# (§3) The J-Lat T-cell clones used herein are infected with full-length HIV proviruses and contain the Aequorea victoria green fluorescent protein (GFP) gene in lieu of Net thus permitting epifluorescence monitoring of viral transcriptional activity. Under basal conditions, little or no GFP expression is detected; however, transcriptional activation of the latent provirus leads to GFP expression, which can be detected at the single-cell level by flow cytometry. Flow cytometry analysis and FACS was essentially performed as described (Williams et al., 2004, J Biol Chem 279(40):42008-42017).
# (§4) Cells were analyzed for GFP-fluorescence and general viability characteristics on a FACSCalibur flow cytometer (Becton Dickinson). Data were analyzed with FlowJo (Treesoft) flow cytometry analysis software.
# (§5) J-Lat 6.3 and 8.4 T-cells cultured in RPMI supplemented with 10% fetal calf serum (FCS) and penicillin/streptomycin were counted and adjusted to 1×10^6 cells/ml. 80 μl aliquots of J-Lat 6.3 and 8.4 T-cells, respectively, were pipetted in a 96-well u-bottomed plate. […] Then HIV-LTR-driven expression of GFP was assessed by flow cytometry using a Beckton Dickenson FACScalibur as described above. […] Cells with greater GFP fluorescence than a non-GFP expressing Jurkat control cells were considered GFP-positive.
# [2] = system: latent HIV expression in J-Lat 8.4 T-cells; test: HIV-LTR-driven expression of GFP (flow cytometry) in J-Lat 8.4 T-cells; type: cell-based; conditions: 16 hours; for activation of latent HIV expression (GFP-positive cells): J-Lat 8.4 T-cells
# Protocol: as §1, §2, §3, §4, §5
# [3] = system: latent HIV expression in J-Lat6.3kRed2 cells; type: cell-based
# Protocol: In a similar experiment, J-Lat6.3kRed2 cells, a modified cell line derived from J-Lat6.3 containing an integrated kB-DsRed2 reporter, was used. J-Lat6.3kRed2 cells were counted and adjusted to 1×10^6 cells/ml. 80 μl aliquots were pipetted in a 96-well u-bottomed plate. Two-fold serial dilutions of 4, 2, and 1 μM trichostatin A (TSA) were made and added to the cells at final concentrations of 400 nM, 200 nM, and 100 nM, respectively. Three-fold serial dilutions of 100, 33, 11, 3.7 μM prostratin were made and added to cells at final concentrations of 10 μM, 3.3 μM, 1.1 μM, and 0.37 μM (0.4 μM in FIG. 1C), respectively. Samples were mixed by pipetting, returned to a 37° C. incubator with 5% CO2 and 90% humidity for 20 hours, HIV-LTR-driven expression of GFP was assessed by flow cytometry as described above.
# In order to test a possible synergistic effect of additional histone deacetylase inhibitors, the effect of valproic acid in combination with prostratin was analyzed. J-Lat6.3kRed2 cells were adjusted to 1×10^6 cells/ml. 80 μl cell aliquots were pipetted in a 96-well u-bottomed plate. […] HIV-LTR-driven expression of GFP was assessed by flow cytometry as described above.
# J-Lat 6.3 cells = test: Cell viability assay (flow cytometry light scatter), J-Lat 6.3 cells; type: cell-based
# Protocol: (§6) Following stimulation, cells were cultured for 16 hours at 37° C. 90% humidity, 5% CO2. Cells were then analyzed by flow cytometry for viability.
# (§7) Cells were scored as viable if they were detected in a characteristically “live” region of light scatter and defraction as measured by flow cytometry.
# (§8) As described herein, it is known in the art that high concentrations of prostratin exert some toxic effects on cells. Thus, using the same experimental set-up as described in Example 2, above, cell viability was determined. Cell viability were quantitated as described above. Using J-Lat 6.3 cells and 8.4 T-cells, it was observed that 2 μM prostratin induced cell death in about 50% of the cells. […] In this experiment, cells were incubated with prostratin for about 20 hours, whereas J-Lat 6.3 cells and 8.4 T-cells (in FIGS. 2A and 2B) were incubated with prostratin for 36 hours.
# J-Lat 8.4 T-cells = test: Cell viability assay (flow cytometry light scatter), J-Lat 8.4 T-cells; type: cell-based
# Protocol: as §6, §7, §8
# J-Lat6.3kRed2 cells = test: Cell viability assay (flow cytometry light scatter), J-Lat6.3kRed2 cells; type: cell-based
# Protocol: as §6, §7, §8
# As described in Example 3 for TSA, the effect of valproic acid on blocking prostratin-induced cell death was analyzed using the same experimental set-up as described in Example 4.
# [4] = system: latent HIV expression in J-Lat 6.3 cells; test: Tat transfection assay, latent HIV-driven GFP expression in J-Lat 6.3 cells; type: cell-based; conditions: for effect on Tat-induced latent HIV-driven expression of GFP: coadministration with Tat (FLAG-Tat transfected cells), 16 hours, J-Lat 6.3 cells (FIG. 5)
# Protocol: 10^6 J-Lat 6.3 cells cultured in RPMI+10% fetal calf serum (FCS) and penicillin/streptomycin were pelleted by centrifugation and resuspended in 0.4 mL RPMI without serum. Cell suspension was mixed with 1 μg of pMACS-kk H2kk expression vector DNA (Miltenyi), and 10 μg of pCMV4 (Andersson et al., 1989, J Biol Chem 264 (14):8222-8229), or 10 μg pCMV4-FLAG-Tat expression vector (gift of Eric Verdin), transferred to a 0.4 cm gap electroporation cuvette (Stratagene), and electroporated at 975 μF, […] for ˜25×10^−3 seconds. Electroporated cells were resuspended in 4 mL medium, and returned to cell culture for 48 hours. 90 μl aliquots of each sample were distributed to U-bottomed 96-well plates and 10 μl of 200 ng/mL TNF-α (Biosource), 10 μl of 1 mM Trichostatin A (Biomol), or 10 μl of RPMI. For 30′-pulse TNF-α stimulation experiments, 10 μl of 200 ng/mL TNF-α was added to 90 μl cell suspension for 30 minutes, cells were transferred to a V-bottomed 96 well plate and centrifuged at […] for 3 minutes. Supernatant was removed and replaced, and procedure was repeated 2×. Cells were resuspended in 100 μl fresh RPMI with 10% serum and penicillin/streptomycin. 16 hours after treatment, cells were pelleted by centrifugation, and resuspended in 50 μl PBS+1:100 dilution of streptavidin-conjugated anti-H2kk antibody. Samples were incubated 10 minutes, diluted in 200 μl PBS, pelleted by centrifugation, and supernatant removed. […] Samples were analyzed by flow cytometry using a Beckton Dickinson FACSCalibur. Cells were analyzed using FlowJo (TreeSoft) flow cytometry analysis software. Live cells were identified by characteristic light scatter and defraction and exclusively analyzed. Cells with APC fluorescence greater that untransfected cells stained with biotin-APC were considered to be H2kk-positive, and to have been successfully transfected. […]
# [5] = system: latent HIV expression in J-Lat 9.2 cells; test: Tat transfection assay, latent HIV-driven GFP expression in J-Lat 9.2 cells; type: cell-based; conditions: FLAG-Tat transfected J-Lat 9.2 cells (FIG. 6); result similar to Example 6
# [6] = concentration of >500 nM for more than 2 days; cited from earlier work
# [7] = cited from earlier work
# [8] = co-administration of 100 nM TSA with 2 μM prostratin
compound,measurement,setting,value
"CC1=C[C@H]2[C@@]3(O)[C@H](C)C[C@]4(OC(=O)Cc5ccccc5)C([C@@H]3C=C(CO)C[C@]2(O)C1=O)C4(C)C (stereo partly shown) [DPP, 12-deoxyphorbol 13-phenylacetate]",potency relative to prostratin,latent HIV expression,20-40 fold
"CC(/C=C/C(=O)NO)=C\[C@@H](C)C(=O)c1ccc(N(C)C)cc1 [TSA, [R-(E,E)]-7-[4-(Dimethylamino)phenyl]-N-hydroxy-4,6-dimethyl-7-oxo-2,4-heptadienamide]",activation of latent HIV expression (GFP-positive cells),[1]; TSA 100 nM administered alone,no significant effect
same,potentiation of the effect of prostratin on latent HIV expression,"[1]; TSA 100 nM with prostratin 2 μM, J-Lat 6.3 cells (FIG. 1A)",5-6 fold
same,activation of latent HIV expression (GFP-positive cells),[2]; TSA 100 nM administered alone,no significant effect
same,potentiation of the effect of prostratin on latent HIV expression,"[2]; TSA 100 nM with prostratin 2 μM, J-Lat 8.4 T-cells (FIG. 1B)",6-7 fold
same,synergistic effect on activation of latent HIV expression,"[3]; 370 (400) nM TSA in combination with 0.4 μM prostratin, 20 hours, J-Lat6.3kRed2 cells (FIG. 1C)",about 16 fold
same,effect on the activation of latent HIV expression,"[3]; TSA 100-400 nM with prostratin 0.37-10 μM, 20 hours, J-Lat6.3kRed2 cells",drastic effect
same,effect on prostratin-induced cell death,J-Lat 6.3 cells; [8],almost completely inhibited
same,effect on prostratin-induced cell death,J-Lat 8.4 T-cells; [8],almost completely inhibited
same,effect on prostratin-induced cell death,"J-Lat6.3kRed2 cells; TSA with prostratin up to 10 μM, about 20 hours, J-Lat6.3kRed2 cells (FIG. 2C)",inhibited prostratin-induced cell death
same,effect on Tat-induced latent HIV-driven expression of GFP,[4],strongly enhanced
same,activation of expression of latent HIV (GFP) together with Tat,[5],Synergizes with Tat
"CC(=O)O[C@@]12C[C@@H](C)[C@@]3(O)[C@@H](C=C(CO)C[C@]4(O)C(=O)C(C)=C[C@@H]34)[C@@H]1C2(C)C [prostratin, 12-deoxyphorbol 13-acetate]",activation of latent HIV expression (GFP-positive cells),[1]; prostratin 2 μM alone,induced the activation of latent HIV expression
same,activation of latent HIV expression (GFP-positive cells),[2]; prostratin 2 μM alone,induced the activation of latent HIV expression
same,prostratin-induced cell death (cells),"J-Lat 6.3 cells; 2 μM prostratin, incubated 36 hours (FIG. 2A)",about 50%
same,prostratin-induced cell death (cells),"J-Lat 8.4 T-cells; 2 μM prostratin, incubated 36 hours (FIG. 2B)",about 50%
same,toxicity (growth arrest and cell death),[6],substantial growth arrest and cell death
"CCCC(CCC)C(=O)O [valproic acid, 2-propylpentanoic acid]",potentiation of the effect of prostratin on latent HIV expression,"[3]; valproic acid 0.3 mM with prostratin 0.37 μM, 18 hours, J-Lat6.3kRed2 cells (FIG. 3)",6-7 fold
same,effect on prostratin-induced cell death,"J-Lat6.3kRed2 cells; valproic acid at all tested concentrations (0.3-3 mM), prostratin 10 μM, J-Lat6.3kRed2 cells (FIG. 4)",blocked prostratin-induced cell death
same,time of peak serum levels,[7]; after a single oral dose,1 to 4 h
same,serum half-life,[7]; in vivo,6 to 16 h
same,absorption after oral administration,[7]; oral,rapidly absorbed
TNF-α,expression of latent HIV (GFP),"[4]; 30-minute pulse treatment of TNF-α, without Tat, J-Lat 6.3 cells",weak expression
same,effect on Tat-induced latent HIV-driven expression of GFP,[4],strongly enhanced
same,activation of expression of latent HIV (GFP) together with Tat,[5],Synergizes with Tat
